In one data set the test system is CYP3A5. More on the design: method as in PMID 19530969. The note with it: cited from earlier work.
The next data set has as its system human CYP3A4. More on the design: method as in PMID 19530969. The note with it: cited from earlier work.
A further data set addresses T1, CYP105AS1 (Amycolatopsis orientalis, UniProt W5VH56).
T1 construct: N-terminal polyhistidine tag, pBAD vector, expressed in E. coli Top10
T1 sequence (W5VH56 1-401): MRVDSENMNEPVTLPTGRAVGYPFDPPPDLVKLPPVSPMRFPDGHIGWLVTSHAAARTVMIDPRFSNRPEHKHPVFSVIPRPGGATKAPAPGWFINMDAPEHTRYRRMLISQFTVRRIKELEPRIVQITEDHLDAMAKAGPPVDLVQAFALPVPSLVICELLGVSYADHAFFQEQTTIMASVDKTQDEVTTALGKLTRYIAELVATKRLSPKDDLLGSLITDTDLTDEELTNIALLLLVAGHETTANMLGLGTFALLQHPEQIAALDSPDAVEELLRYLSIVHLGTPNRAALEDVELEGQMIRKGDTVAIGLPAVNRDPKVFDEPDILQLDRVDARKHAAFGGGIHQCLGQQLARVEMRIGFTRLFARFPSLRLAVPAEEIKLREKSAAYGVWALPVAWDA
As to the kind of experiment: UV-vis spectral (type I Soret shift) titration of 3-8 uM purified P450 with compactin from DMSO stocks at 25 °C in 50 mM potassium phosphate, 300 mM KCl, 10% glycerol, pH 8.0; hyperbolic or Morrison tight-binding fit. Here is the method:
(§1) Absorbance spectra (300–800 nm) of P450 variants were measured on a Cary 60 UV–vis spectrophotometer at 25 °C using 3–8 μM protein in buffer A. The pyridine hemochromogen method was used to quantify CYP105AS1 P450 variant heme concentrations and to determine an extinction coefficient at the heme Soret maximum for each variant.[89] For titration, compactin (0.05–0.5 μL) was added from 5 to 50 mM stock solutions in DMSO. The overall absorbance change (ΔAmax) was calculated as Apeak (absorbance maximum) minus Atrough (absorbance minimum) and plotted against the substrate concentration. Data were fitted according to a standard hyperbolic binding equation or a Morrison equation for tight-binding to determine dissociation constants (Kd).[90],[91]
(§2) UV–vis substrate binding studies were conducted to investigate the effect of mutations on compactin binding. […] Probably, the bulky aromatic side chain of the introduced Phe95 residue influenced the binding of compactin, which allowed elimination of the proximal water ligand and full conversion to the high-spin state upon binding of this substrate.

The target of the next data set is T2, P450pra + P80G (Amycolatopsis orientalis, UniProt W5VH56, P80G/I95T/Q127R/A180V/L236I/A265N).
T2 construct: N-terminal polyhistidine tag, expressed in E. coli
In kind it is binding. Here is the method:
as §1, §2

For data set [1], the target named is T3, P450pra + T95F/V180M (=P450pra100) (Amycolatopsis orientalis, UniProt W5VH56, I95F/Q127R/A180M/L236I/A265N).
T3 construct: N-terminal polyhistidine tag, expressed in E. coli
In kind it is binding. The procedure: as §1, §2

For the next data set, the target named is T4, P450pra + T95F (Amycolatopsis orientalis, UniProt W5VH56, I95F/Q127R/A180V/L236I/A265N).
T4 construct: N-terminal polyhistidine tag, expressed in E. coli
In kind it is binding. Here is the method: as §1, §2

In another data set the target is T5, P450pra + F76N (Amycolatopsis orientalis, UniProt W5VH56, F76N/I95T/Q127R/A180V/L236I/A265N).
T5 construct: N-terminal polyhistidine tag, expressed in E. coli
In kind it is binding. The procedure: as §1, §2

In the next data set the target is T6, P450pra + T95W (Amycolatopsis orientalis, UniProt W5VH56, I95W/Q127R/A180V/L236I/A265N).
T6 construct: N-terminal polyhistidine tag, expressed in E. coli
In kind it is binding. The procedure:
as §1, §2

The next data set addresses T7, P450pra + T286I (Amycolatopsis orientalis, UniProt W5VH56, I95T/Q127R/A180V/L236I/A265N/T286I).
T7 construct: N-terminal polyhistidine tag, expressed in E. coli
In kind it is binding. The procedure:
as §1, §2

The next data set has as its target T8, P450pra +V180I (Amycolatopsis orientalis, UniProt W5VH56, I95T/Q127R/A180I/L236I/A265N).
T8 construct: N-terminal polyhistidine tag, expressed in E. coli
In kind it is binding. Here is the method:
as §1, §2

In the next data set the target is T9, P450pra (Amycolatopsis orientalis, UniProt W5VH56, I95T/Q127R/A180V/L236I/A265N).
T9 construct: N-terminal polyhistidine tag, expressed in E. coli; directed evolution variant
In kind it is binding. Here is the method:
as §1, §2

Another data set has as its target T10, P450pra +V180M (Amycolatopsis orientalis, UniProt W5VH56, I95T/Q127R/A180M/L236I/A265N).
T10 construct: N-terminal polyhistidine tag, expressed in E. coli
In kind it is binding. Here is the method: as §1, §2

T5 sequence (W5VH56 entry or part of it F76N/I95T/Q127R/A180V/L236I/A265N): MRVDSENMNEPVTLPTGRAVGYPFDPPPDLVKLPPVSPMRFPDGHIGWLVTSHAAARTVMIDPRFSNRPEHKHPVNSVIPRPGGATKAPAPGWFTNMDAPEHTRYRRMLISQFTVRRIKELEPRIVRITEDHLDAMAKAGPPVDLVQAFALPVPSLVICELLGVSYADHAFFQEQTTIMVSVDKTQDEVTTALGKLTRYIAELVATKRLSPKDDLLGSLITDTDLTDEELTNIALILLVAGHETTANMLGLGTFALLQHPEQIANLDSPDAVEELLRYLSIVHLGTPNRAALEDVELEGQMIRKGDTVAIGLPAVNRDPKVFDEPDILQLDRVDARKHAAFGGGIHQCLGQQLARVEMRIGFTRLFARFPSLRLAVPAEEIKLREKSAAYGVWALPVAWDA
T3 sequence (W5VH56 entry or part of it I95F/Q127R/A180M/L236I/A265N): as the sequence (W5VH56 entry or part of it F76N/I95T/Q127R/A180V/L236I/A265N) above, with N76F, T95F, V180M counted along it
T8 sequence (W5VH56 entry or part of it I95T/Q127R/A180I/L236I/A265N): as the sequence (W5VH56 entry or part of it F76N/I95T/Q127R/A180V/L236I/A265N) above, with N76F, V180I counted along it
T4 sequence (W5VH56 entry or part of it I95F/Q127R/A180V/L236I/A265N): as the sequence (W5VH56 entry or part of it F76N/I95T/Q127R/A180V/L236I/A265N) above, with N76F, T95F counted along it
T7 sequence (W5VH56 entry or part of it I95T/Q127R/A180V/L236I/A265N/T286I): as the sequence (W5VH56 entry or part of it F76N/I95T/Q127R/A180V/L236I/A265N) above, with N76F, T286I counted along it
T10 sequence (W5VH56 entry or part of it I95T/Q127R/A180M/L236I/A265N): as the sequence (W5VH56 entry or part of it F76N/I95T/Q127R/A180V/L236I/A265N) above, with N76F, V180M counted along it
T9 sequence (W5VH56 entry or part of it I95T/Q127R/A180V/L236I/A265N): as the sequence (W5VH56 entry or part of it F76N/I95T/Q127R/A180V/L236I/A265N) above, with N76F counted along it
T6 sequence (W5VH56 entry or part of it I95W/Q127R/A180V/L236I/A265N): as the sequence (W5VH56 entry or part of it F76N/I95T/Q127R/A180V/L236I/A265N) above, with N76F, T95W counted along it
T2 sequence (W5VH56 entry or part of it P80G/I95T/Q127R/A180V/L236I/A265N): as the sequence (W5VH56 entry or part of it F76N/I95T/Q127R/A180V/L236I/A265N) above, with N76F, P80G counted along it

`CC[C@H](C)C(=O)O[C@H]1C[C@H](O)C=C2C=C[C@H](C)[C@H](CC[C@@H](O)C[C@@H](O)CC(=O)O)[C@H]21` [pravastatin]: the “metabolism by human CYP3A5” value with CYP3A5 is listed as “not significantly metabolized”. The “metabolism by human CYP3A4” value with human CYP3A4 is recorded as “not significantly metabolized”.
Take `CC[C@H](C)C(=O)O[C@H]1CCC=C2C=C[C@H](C)[C@H](CC[C@@H]3C[C@@H](O)CC(=O)O3)[C@H]21` [compactin, compactin (mevastatin)]: the Kd (as a rule, the constant that tells how readily two partners part at equilibrium) on CYP105AS1 amounted to 30300 ± 5200 nM; on P450pra + P80G it was 5840 ± 340 nM; in data set [1], 130 ± 30 nM; on P450pra + T95F, 250 ± 10 nM; on P450pra + F76N, 4810 ± 250 nM; on P450pra + T95W it was 3290 ± 30 nM. The Kd on P450pra + T286I was 4930 ± 250 nM; at P450pra +V180I it was 1640 ± 130 nM; on P450pra, 770 ± 70 nM; at P450pra +V180M it was 1340 ± 60 nM.

The values are drawn from article PMC9764288, “Computation-Aided Engineering of Cytochrome P450 for the Production of Pravastatin” (ACS Catalysis, 2022).
